For series [1], the system named is endogenous CD4, CD8, CD4/CD8 T cells and NK cells. In words: In vivo transfection of T and NK cells with LNP-encapsulated modified mRNA encoding eGFP, FACS of splenocytes. Further details: species or system Balb/c mice. As to conditions: LNP delivering 10 mg modified mRNA encoding eGFP, intravenously, 18 hours after injection. As to the method:
(§1) LNP formulated using the ionizable lipids of the disclosure were used to deliver modified RNA encoding reporter genes to determine the transfection efficiency of exemplary ionizable lipids of the disclosure in immune cells and organs. Injections of mice with LNP-encapsulated modified mRNA encoding either Luciferases or eGFP were performed. In experiments with payloads encoding Luciferase mRNA, spleen expression was detected, which is an important organ with abundant pan T cells. In experiments with payloads encoding eGFP mRNA, transfection of primary T cells in vivo by FACS analysis was performed.
Balb/c mice were intravenously injected with of 10 mg modified mRNA encoding eGFP. The modified mRNA encoding eGFP were delivered using LNPs formulated with P1D4 and P161F6 ionizable lipids in groups of 5 mice. A control group of 5 mice were injected with PBS. Balb/c mice were injected intravenously. The mice were sacrificed 18 hours after injection. Single cell splenocytes were prepared for FACS staining.

A short description of series [2]: LNP Characteristics (size, PDI, encapsulation efficiency) of LNPs formulated with novel ionizable lipids. Type of series: physicochemical. The following applies: LNP formulated with the ionizable lipid, DOPE, Cholesterol, DMG-PEG2000. As to the method:
LNPs formulated using the novel ionizable lipids of the disclosure or control ionizable lipids MC3 and SM-102 were synthesized by mixing the lipid components of the LNP in ethanol at a predetermined molar ratio (ionizable lipid/DOPE/Cholesterol/DMG-PEG2000=30/15/50/1.5) to prepare an organic phase. Sa-mRNA encoding firefly luciferase (LUC) or green fluorescent protein (GFP) was diluted in 50 mM citrate buffer (pH 4.5, Fisher) to prepare an aqueous phase. The sa-mRNA was stored at −80° C. and was thawed on ice prior to use. The ethanol and aqueous phases were mixed at a 1:3 ratio by pipette with the N/P=4.2/1. The resultant LNPs were purified by ultrafiltration (100,000 cut-off, MilliporeSigma™ Amicon™ Ultra-15 Centrifugal Filter Units) at 4° C. prior to transfection into a cell, such as a T-cell.
LNPs formulated using novel ionizable lipids of the disclosure were synthesized using the procedure described in Example 2 and characterized. Table 4 below show the properties of each LNP formulated using a novel ionizable lipid of the disclosure.

The subject of series [3] is spleen. As to the kind of experiment: In vivo Luciferase expression after injection of LNP-encapsulated modified mRNA, IVIS imaging. As to conditions: LNP delivering 10 mg modified mRNA encoding Luciferase; 18 hours post injection; Balb/c mice. As to the method:
as §1
Balb/c mice were intraperitoneally injected with 10 mg modified mRNA encoding Luciferase, encapsulated by LNPs formulated with P1D4, P51C12, P161F6 ionizable lipids. To detect luminescence, the mice were subsequently injected with 6 mg Luciferin, a substrate of Luciferase and imaged by IVIS five minutes later.

On to `CCCCCCCCCCCCCC(=O)N(CC(CCCCCCCC)CCCCCCCCCC)C(C(=O)NCC(=O)OCC)C1CCN(CC)CC1` (stereo not shown) [Lipid P1D4, Ethyl (2-(1-ethylpiperidin-4-yl)-2-(N-(2-octyldodecyl)tetradecanamido)acetyl)glycinate], for which the “transfection of endogenous CD4, CD8, CD4/CD8 T cells and NK cells” value in series [1] was “could transfect endogenous CD4, CD8, CD4/CD8 T cells as well as NK cell”. For the same compound, in series [2], the “Avg. Encapsulation Efficiency (EE) %” value was 92.7%, the “Avg. PDI” value came to 0.17 and the “Avg. Size” value is recorded as 170.4 nm. Also, the “transfection of the spleen (Luciferase signal)” value in series [3] is “effectively transfected the spleen”.
Take `CCCCCCCCCCCCC(CCCCCCCCCC)CN(C(=O)CCC(C)C1CCC2C3CC(O)C4CC(O)CCC4(C)C3CCC12C)C(C(=O)NC12CC3CC(CC(C3)C1)C2)C1CCN(CC)CC1` (stereo not shown) [Lipid P161F6, N-(2-(((1s,3s)-adamantan-1-yl)amino)-1-(1-ethylpiperidin-4-yl)-2-oxoethyl)-N-(2-decyltetradecyl)-4-(3,6-dihydroxy-10,13-dimethylhexadecahydro-1H-cyclopenta[a]phenanthren-17-yl)pentanamide]: in series [1], the “transfection of endogenous CD4, CD8, CD4/CD8 T cells and NK cells” value is “could transfect endogenous CD4, CD8, CD4/CD8 T cells as well as NK cell”. In addition, in series [2], the “Avg. Encapsulation Efficiency (EE) %” value came to 87.1%, the “Avg. PDI” value was 0.18 and the “Avg. Size” value came to 215 nm. The “transfection of the spleen (Luciferase signal)” value in series [3] is reported as “effectively transfected the spleen”.
As for `CCCCCCCCCCC(CCCCCCCC)CN(C(=O)CCC(C)C1CCC2C3CC(O)C4CC(O)CCC4(C)C3CCC12C)C(CC1CCN(C)CC1)C(=O)NC12CC3CC(CC(C3)C1)C2` (stereo not shown) [Lipid P161F10, N-(1-(((1s,3s)-adamantan-1-yl)amino)-3-(1-methylpiperidin-4-yl)-1-oxopropan-2-yl)-4-(3,6-dihydroxy-10,13-dimethylhexadecahydro-1H-cyclopenta[a]phenanthren-17-yl)-N-(2-octyldodecyl)pentanamide], in series [2], the “Avg. Encapsulation Efficiency (EE) %” value worked out at 87.9%, the “Avg. PDI” value stood at 0.19 and the “Avg. Size” value worked out at 225 nm.
Taken in the same sequence, the figures for `CCCCCCCCCN(CCCCCCCCC)CCC(=O)N1CN(C(=O)CCN(CCCCCCCCC)CCCCCCCCC)CN(C(=O)CCN(CCCCCCCCC)CCCCCCCCC)C1` [Lipid E2, 1,1′,1″-(1,3,5-triazinane-1,3,5-triyl)tris(3-(dinonylamino)propan-1-one)] were 95.1%, 0.1 and 200 nm.
With `CCCCCCCCCCCC(=O)N(C(CCCCCCCCCCC)CCCCCCCCCCC)C(CC1CCN(C)CC1)C(=O)NC1CCCCCC1` (stereo not shown) [Lipid P40C11, N-(1-(cycloheptylamino)-3-(1-methylpiperidin-4-yl)-1-oxopropan-2-yl)-N-(tricosan-12-yl)dodecanamide], in series [2], the “Avg. Encapsulation Efficiency (EE) %” value came to 96.6%, the “Avg. PDI” value is reported as 0.14 and the “Avg. Size” value was found to be 189.3 nm.
Taken in the same sequence, the figures for `CCCCCCCCCCCCCCC(=O)N(C(CCCCCCC)CCCCCCC)C(CC1CCN(C)CC1)C(=O)NC1CCCCCC1` (stereo not shown) [Lipid P40D7, N-(1-(cycloheptylamino)-3-(1-methylpiperidin-4-yl)-1-oxopropan-2-yl)-N-(pentadecan-8-yl)pentadecanamide] were 98.2%, 0.18 and 149.2 nm.
In the case of `CCCCCCCCCCCCOC(=O)CCC(=O)N(C(CCCCCCC)CCCCCCC)C(C(=O)NC1CCCCCC1)C1CCN(CC)CC1` (stereo not shown) [Lipid P153C1, dodecyl 4-((2-(cycloheptylamino)-1-(1-ethylpiperidin-4-yl)-2-oxoethyl)(pentadecan-8-yl)amino)-4-oxobutanoate], in series [2], the “Avg. Encapsulation Efficiency (EE) %” value was 90.1%, the “Avg. PDI” value is on record as 0.12 and the “Avg. Size” value is listed as 148 nm.
For `CCCCCCCCCCCCCCCCC(=O)N(C(CCCCCCC)CCCCCCC)C(CC1CCN(C)CC1)C(=O)NC1CCCCC1` (stereo not shown) [Lipid P30B7, N-(1-(cyclohexylamino)-3-(1-methylpiperidin-4-yl)-1-oxopropan-2-yl)-N-(pentadecan-8-yl)heptadecanamide], in series [2], the “Avg. Encapsulation Efficiency (EE) %” value is reported as 91.0%, the “Avg. PDI” value was determined as 0.10 and the “Avg. Size” value was 151.6 nm.
